Data on one compound can be found in US4829086A, “Soft β-adrenergic blocking agents” (priority 1985, dated 1989).

“Also recorded” adds a separate entry of the source. Counter-ions that a name gives are not always drawn.

For data set [1], the system named is heart rate response to isoproterenol (β-adrenergic). Put plainly: Duration of action study, heart rate in rats. The data set is classed as in vivo, male Sprague Dawley rats. The conditions noted are these: 6 mg/kg i.p.; for resting heart rate prior to isoproterenol: mean ± SEM. As for the experimental part:
Duration of Action Studies. An additional 38 male Sprague Dawley rats (Blue Spruce Farms) initially weighing 268 to 290 gm were anesthetized with sodium pentobarbital (45 mg/kg i.p.), and the carotid artery was cannulated as previously described. On the day of experimentation, after a one-hour equilibration period, initial baseline conditions of basal heart rate and mean blood pressures were recorded. The beta blocker (17) was administered intraperitoneally at a dose of 6 mg/kg. The drug was dissolved in an ethanol: water solution (3:1). This carrier was administered in the control rats. Isoproterenol (Isurprel®, Wintrop Laboratories) was then administered (25 μg/kg s.c.), either 15(n=13), 60(n=12) or 90(n=12) minutes after the beta blocker was administered. Blood pressures and heart rates were recorded at 3, 5, 10, 15, 20, 30, 45 and 60 minutes after isoproterenol administration in all three trials. Both control and experimental animals were unrestrained and free moving in their home cages throught the experiment. Heart rates and mean blood pressure were calculated from the data and a one-way ANOVA was determined at each time interval. The results are shown in FIG. 2 for control vehicle and compound 17 at 15(), 60() and 90() minutes prior to isoproterenol administration at time zero. Resting heart rates were similar in all 4 groups prior to administration of isoproterenol; 342±12; 375±14; 372±19 and 385±17 beats/minute, respectively. […] Data are shown as mean±standard error of the mean.

Data set [2] deals with blood pressure response to isoproterenol. Put plainly: Blood pressure response to isoproterenol in rats. The data set is classed as in vivo, male Spraque-Dawley rats. The conditions noted are these: 6 mg/kg i.p.; 10 minutes after isoproterenol. From the text:
Initial Drug Screening Protocol. Thirty-two male Spraque-Dawley rats (Blue Spruce Farms) initially weighing 300-450 gm were divided into seven different groups, each for a different drug to be tested: 12(n=4), 14(n=4), 17(n=5), 13(n=4) and 18(n=3), corresponding to the designated compounds 12, 14, 17, 13 and 18 (number of animals), respectively. The other two groups were controls (n=8, isoproterenol alone pretreated with carrier) and those treated with a known β-blocker, dl-propranolol (n=3). Ech animal was anesthetized with sodium pentobarbital (45 mg/kg) and the carotid artery was cannulated with PE-50 tubing. The cannula was subcutaneously threaded around the neck and exteriorized dorsally between the shoulder blades. Th cannula was filled with a heparin solution (300 μg/mL) and sealed with a solid 22 gauge stylet. The animals were housed in individual stainless steel cages, and two days were allowed for recovery from the surgery. Food and water were provided ad libitum. On the day of the experiment, the blood pressure and heart rate of each rat were monitored with a pressure transducer (Narco-Bio model P-1000) and the data recorded on a four-channel physiograph (Narco-Bio systems Marck IV). One hour was allowed as an equilibration period before any drugs were administered. All beta blockers were administered intraperitoneally at a dose of 6 mg/kg. Compounds 12 and 14 and dl-proranolol were dissolved in normal saline while compounds 13, 17 and 18 were dissolved in an ethanol: water solution (3:1). Depending on the trial, controls were administered the appropriate carrier. One hour after administration of the blocker, isoproterenol (Isuprel®, Wintrop Laboratories) was administered subcutaneously at a dose of 25 μg/kg. Blood pressures and heart rate also were recorded 3, 5, 10, 15, 20, 30, 45 and 60 minutes after isoproterenol administration. Both control and experimental animals were unrestrained and free moving in their home cage throughout the experiment. […] However, significant differences in the mean heart rate response amoung the 7 groups were observed: *p<0.005;**p<0.025. Comparisons between groups were made by the Newman-Keuls procedure with significance set at the 95% confidence interval. […] All data are shown as mean±standard error of the mean.
Symbols are the same as those described for FIG. 1. […] Data are shown as mean±standard error of the mean.

A short description of data set [3]: Hydrolytic rate in 0.01 N aqueous sodium hydroxide, pH 12.0. The data set is classed as physicochemical. The conditions noted are these: pH 12.0, ionic strength 0.10 M (NaCl), 27.3 ± 0.2° C. As for the experimental part: Analytical Methods. A high pressure liquid chromatography (HPLC) method was developed for the determination of the rate constants. The chromatographic analysis was performed in a system consisting of Waters Associates Model 600-A Solvent Delivery System, Model U-6K Injector and Model 440 Dual Channel Absorbance Detector operated at 254 and 280 nm. A 30 cm×3.9 mm (internal diameter) reverse phase μBondpack C18 column (Waters Associates), operated at ambient temperature, was used for all separations. When plasma samples were analyzed, the column was protected with a 2.3 cm×3.9 mm (internal diameter) Guard Column (Waters) packed with μBondpack C18/Corasil packing material. The mobile phase used for the separation of 17 and its degradation product, 5, consisted of water, 1-hexane sulfonic acid in acetic acid (B-6 reagent, Waters), 0.1M triethanolamine and methanol (100:1:100:799). […] For the separation of compounds 10-16 and 18 and their degradation product 5, a mobile phase consisting of water, 1-hexane sulfonic acid in acetic acid (B-6 reagent, Waters), 0.1M triethanolamine and methanol (390:1:10:599) was used.
Determination of the Hydrolytic Rate Constants in Aqueous Solutions. A 0.01M phosphate buffer and 0.01N sodium hydroxide solution were prepared from freshly distilled deionized water. This ionic strength was maintained at 0.1M with sodium chloride. The pH of the phosphate buffer was determined at 37.0° C. with a pH meter standardized at this temperature. For determination of the hydrolytic rate constants, a fresh concentrated solution of the ester in methanol was added to the hydrolytic medium previously equilibrated to the desired temperature and mixed thoroughly to result in an initial concentration of about 5×10^-4 mol. liter^-1. All reactions were run under pseudo first order conditions. Samples of 25 μL were injected into the column at various time intervals and the pseudo first order rate constants were determined from disappearance of the compound by linear regression of natural logarithm of the peak height versus time plots. The half-life and standard error of the rate constant were calculated for each run.

Turning to `CC(C)NCC(O)COc1ccc(CC(=O)OC2CC(C)(C)CC(C)(C)C2)cc1` (centres unmarked) [Compound 17, 3,3,5,5-Tetramethylcyclohexyl 4-(2-hydroxy-3-isopropylamino)propoxyphenylacetate oxalate 3/4 hydrate], the “heart rate response to isoproterenol” value in data set [1] (15 or 60 minutes prior to isoproterenol 25 μg/kg s.c., FIG. 2, hydrate) is given as “attentuated heart rate response; also recorded: significant activity on heart rate”. The “resting heart rate prior to isoproterenol” value in data set [1] (15 minutes prior to isoproterenol) worked out at 375±14 beats/minute; in data set [1] (60 minutes prior to isoproterenol) it was 372±19 beats/minute; in data set [1] (90 minutes prior to isoproterenol) it was 385±17 beats/minute. In addition, the “heart rate activity at 90 minutes” value in data set [1] (90 minutes prior to isoproterenol, FIG. 2) is “disappears at 90 minutes”. In data set [2], the “mean change in blood pressure at 10 minutes vs compound 18 group” value was “significantly different from the group treated with compound 18”. Moreover, the “Observed pseudo first order hydrolytic rate constant k” value in data set [3] (0.01 N NaOH, ± SEM) is 1.56 ± 0.04 × 10^-2 min^-1. In addition, the half-life in data set [3] (0.01 n naoh, pH 12, 0.01 N NaOH, read-out: Half-life t1/2) worked out at 44.4 min.
